Test in all cases: Kinase panel (mobility shift)
What all share (format): biochemical

Experiment [1] addresses EPH-A5 (Homo sapiens, UniProt P54756). Particulars: at 5 um. The essentials:
(§1)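 Tested at a single 5 um concentration within a 299-kinase panel, compounds were scored by electrophoretic mobility shift of a fluorescent substrate into product. Categories: A, 95% or greater; B, 90%-94%; C, 80%-89%.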

The target in experiment [2] is LCK (Homo sapiens, UniProt P06239). The essentials:
as §1

Experiment [3] addresses T1, TAOK2 (Homo sapiens, UniProt Q9UL54).
T1 sequence (Q9UL54 1-1235): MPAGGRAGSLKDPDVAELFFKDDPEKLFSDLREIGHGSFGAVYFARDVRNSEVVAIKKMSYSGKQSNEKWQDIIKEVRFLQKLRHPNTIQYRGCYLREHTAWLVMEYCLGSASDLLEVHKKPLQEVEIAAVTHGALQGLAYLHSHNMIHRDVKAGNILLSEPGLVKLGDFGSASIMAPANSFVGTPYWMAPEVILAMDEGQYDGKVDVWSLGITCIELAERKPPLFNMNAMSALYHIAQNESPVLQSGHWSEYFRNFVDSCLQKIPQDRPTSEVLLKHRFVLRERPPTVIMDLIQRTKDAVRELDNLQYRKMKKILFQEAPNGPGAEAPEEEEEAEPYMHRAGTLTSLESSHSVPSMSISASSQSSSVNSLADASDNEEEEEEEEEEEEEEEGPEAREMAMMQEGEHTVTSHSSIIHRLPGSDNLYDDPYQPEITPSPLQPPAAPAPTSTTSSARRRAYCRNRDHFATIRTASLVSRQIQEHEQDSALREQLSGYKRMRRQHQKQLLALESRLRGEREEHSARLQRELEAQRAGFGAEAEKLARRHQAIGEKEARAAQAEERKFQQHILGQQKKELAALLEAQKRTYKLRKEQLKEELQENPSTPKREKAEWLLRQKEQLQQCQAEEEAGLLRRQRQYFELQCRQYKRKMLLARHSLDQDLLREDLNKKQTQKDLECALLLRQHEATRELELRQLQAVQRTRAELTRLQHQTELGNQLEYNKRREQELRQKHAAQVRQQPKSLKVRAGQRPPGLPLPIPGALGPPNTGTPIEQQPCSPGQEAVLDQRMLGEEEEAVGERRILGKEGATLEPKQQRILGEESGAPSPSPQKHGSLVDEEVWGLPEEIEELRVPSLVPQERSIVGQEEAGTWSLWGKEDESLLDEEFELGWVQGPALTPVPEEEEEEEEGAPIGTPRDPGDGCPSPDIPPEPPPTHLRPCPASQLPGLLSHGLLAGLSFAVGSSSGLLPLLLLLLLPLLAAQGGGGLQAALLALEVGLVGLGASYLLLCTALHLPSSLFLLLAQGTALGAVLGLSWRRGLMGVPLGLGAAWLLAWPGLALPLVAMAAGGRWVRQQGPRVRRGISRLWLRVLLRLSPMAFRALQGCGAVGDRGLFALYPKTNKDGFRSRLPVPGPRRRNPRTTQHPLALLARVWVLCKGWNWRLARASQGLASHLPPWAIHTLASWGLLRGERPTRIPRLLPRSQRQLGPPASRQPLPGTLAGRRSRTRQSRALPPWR
In a few lines: as §1

For experiment [4], the target named is T2, TAOK3 (Homo sapiens, UniProt Q9H2K8).
T2 sequence (Q9H2K8 1-898): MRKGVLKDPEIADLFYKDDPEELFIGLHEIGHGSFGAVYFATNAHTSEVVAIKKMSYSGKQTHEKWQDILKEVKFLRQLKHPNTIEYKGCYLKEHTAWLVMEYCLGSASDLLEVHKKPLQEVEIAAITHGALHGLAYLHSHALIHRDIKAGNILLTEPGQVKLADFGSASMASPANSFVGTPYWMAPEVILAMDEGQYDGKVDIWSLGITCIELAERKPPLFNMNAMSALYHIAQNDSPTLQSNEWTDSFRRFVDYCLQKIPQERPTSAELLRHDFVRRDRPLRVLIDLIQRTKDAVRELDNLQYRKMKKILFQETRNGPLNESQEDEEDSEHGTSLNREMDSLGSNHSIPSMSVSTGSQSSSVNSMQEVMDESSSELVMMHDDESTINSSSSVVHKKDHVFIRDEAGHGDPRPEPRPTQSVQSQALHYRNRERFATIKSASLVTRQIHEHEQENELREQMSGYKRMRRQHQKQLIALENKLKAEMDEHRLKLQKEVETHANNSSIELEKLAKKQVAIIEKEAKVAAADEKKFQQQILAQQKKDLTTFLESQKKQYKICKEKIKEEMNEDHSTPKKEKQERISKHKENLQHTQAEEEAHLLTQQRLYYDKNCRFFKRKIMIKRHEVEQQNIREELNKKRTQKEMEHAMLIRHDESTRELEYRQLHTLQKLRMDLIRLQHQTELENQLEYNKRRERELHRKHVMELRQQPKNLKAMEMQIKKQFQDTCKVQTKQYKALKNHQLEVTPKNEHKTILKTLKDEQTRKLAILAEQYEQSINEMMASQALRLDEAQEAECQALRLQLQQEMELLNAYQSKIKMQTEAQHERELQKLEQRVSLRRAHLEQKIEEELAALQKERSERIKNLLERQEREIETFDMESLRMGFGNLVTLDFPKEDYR
The essentials: as §1

In experiment [5] the target is TRKA (Homo sapiens, UniProt P04629). The essentials:
as §1

This is an account of results in patent US11629143B2, “HipK4 inhibitors and uses thereof” (Vibliome Therapeutics, LLC, priority 2020, dated 2023).

SMILES strings stand for the structures. Some results are limits rather than exact numbers.

Chain of TRKA (P04629 33-796, species assumed): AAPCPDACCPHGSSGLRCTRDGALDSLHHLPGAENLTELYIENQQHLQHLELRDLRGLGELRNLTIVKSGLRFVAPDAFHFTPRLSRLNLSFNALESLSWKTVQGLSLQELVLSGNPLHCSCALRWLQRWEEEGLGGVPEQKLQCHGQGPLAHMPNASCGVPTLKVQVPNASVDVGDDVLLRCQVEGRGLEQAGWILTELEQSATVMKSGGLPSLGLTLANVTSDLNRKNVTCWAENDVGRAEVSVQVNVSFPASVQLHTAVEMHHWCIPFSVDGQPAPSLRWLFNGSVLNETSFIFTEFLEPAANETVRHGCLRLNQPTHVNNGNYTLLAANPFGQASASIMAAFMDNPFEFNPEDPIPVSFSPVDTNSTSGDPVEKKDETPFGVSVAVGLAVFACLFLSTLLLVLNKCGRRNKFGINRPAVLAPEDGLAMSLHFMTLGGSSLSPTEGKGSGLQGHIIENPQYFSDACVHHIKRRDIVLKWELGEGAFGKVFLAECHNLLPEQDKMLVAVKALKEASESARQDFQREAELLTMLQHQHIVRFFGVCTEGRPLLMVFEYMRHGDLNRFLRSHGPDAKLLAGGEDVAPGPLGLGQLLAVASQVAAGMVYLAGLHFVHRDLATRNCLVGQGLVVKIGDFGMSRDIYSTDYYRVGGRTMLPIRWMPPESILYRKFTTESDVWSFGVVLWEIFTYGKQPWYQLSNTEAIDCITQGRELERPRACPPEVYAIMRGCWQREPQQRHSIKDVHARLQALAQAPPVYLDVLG
Chain of LCK (P06239 whole entry, species assumed): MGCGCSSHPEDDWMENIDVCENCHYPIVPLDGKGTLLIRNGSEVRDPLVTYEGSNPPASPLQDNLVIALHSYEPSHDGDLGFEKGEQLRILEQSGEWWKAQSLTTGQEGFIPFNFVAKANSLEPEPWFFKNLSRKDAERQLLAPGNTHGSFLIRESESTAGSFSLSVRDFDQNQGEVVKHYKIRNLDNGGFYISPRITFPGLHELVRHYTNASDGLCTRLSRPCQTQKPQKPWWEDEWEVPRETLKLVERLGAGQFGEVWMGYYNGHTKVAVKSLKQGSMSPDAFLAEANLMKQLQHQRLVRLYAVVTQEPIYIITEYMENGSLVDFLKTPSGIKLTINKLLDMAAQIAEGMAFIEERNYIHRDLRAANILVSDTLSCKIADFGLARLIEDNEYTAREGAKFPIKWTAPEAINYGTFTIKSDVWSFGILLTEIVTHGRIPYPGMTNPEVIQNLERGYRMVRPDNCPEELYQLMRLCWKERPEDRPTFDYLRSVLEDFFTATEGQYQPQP
Chain of EPH-A5 (P54756 25-1037, species assumed): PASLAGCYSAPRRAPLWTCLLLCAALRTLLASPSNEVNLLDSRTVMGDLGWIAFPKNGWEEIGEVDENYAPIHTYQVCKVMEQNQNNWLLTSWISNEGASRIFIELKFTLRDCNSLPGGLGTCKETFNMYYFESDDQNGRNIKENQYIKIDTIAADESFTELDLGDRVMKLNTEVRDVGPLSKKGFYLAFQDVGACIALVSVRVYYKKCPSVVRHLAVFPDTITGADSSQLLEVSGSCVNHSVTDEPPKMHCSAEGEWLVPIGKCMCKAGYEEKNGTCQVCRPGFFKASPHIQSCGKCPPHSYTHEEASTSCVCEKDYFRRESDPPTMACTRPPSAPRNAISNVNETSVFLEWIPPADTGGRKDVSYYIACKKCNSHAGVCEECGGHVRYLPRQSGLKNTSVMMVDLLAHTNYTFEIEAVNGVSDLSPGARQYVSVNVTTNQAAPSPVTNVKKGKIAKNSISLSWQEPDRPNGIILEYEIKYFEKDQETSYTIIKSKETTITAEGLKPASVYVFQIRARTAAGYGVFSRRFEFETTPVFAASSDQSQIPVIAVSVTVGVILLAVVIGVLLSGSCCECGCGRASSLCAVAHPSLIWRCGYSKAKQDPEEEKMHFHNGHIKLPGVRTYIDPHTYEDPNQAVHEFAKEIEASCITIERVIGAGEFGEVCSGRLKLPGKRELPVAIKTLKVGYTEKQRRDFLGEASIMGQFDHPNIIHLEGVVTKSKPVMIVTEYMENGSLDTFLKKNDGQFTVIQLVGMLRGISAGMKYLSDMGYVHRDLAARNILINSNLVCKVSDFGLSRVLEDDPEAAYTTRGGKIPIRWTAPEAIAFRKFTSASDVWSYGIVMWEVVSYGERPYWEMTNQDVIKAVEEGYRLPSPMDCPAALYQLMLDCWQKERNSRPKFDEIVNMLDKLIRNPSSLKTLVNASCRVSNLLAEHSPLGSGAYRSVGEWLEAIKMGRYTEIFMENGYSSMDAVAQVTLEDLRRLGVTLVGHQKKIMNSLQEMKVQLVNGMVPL

As to `CNC(=O)c1cc(Oc2ccc(NC(=O)c3nc(OCC(F)(F)F)oc3-c3ccc(F)cc3)cc2F)ccn1` [Compound 38], the “inhibition of kinase activity, EPH-A5” value in experiment [1] is reported as “E (category E is less than 50%)”. Moreover, the inhibition – broadly, the drop in the measured response relative to a control, in per cent – at 5 µM in experiment [2] is 50 to 79%; in experiment [3], under 50%; in experiment [4] it was under 50%; in experiment [5] it was 50 to 79%.
Turning to `CNC(=O)c1cc(Oc2ccc(NC(=O)c3nc(OC4CC4)oc3-c3ccc(F)cc3)cc2F)ccn1` [Compound 32], the “inhibition of kinase activity, EPH-A5” value in experiment [1] is “D (category D for 50-79)”. The inhibition at 5 µM lay in the range of 80 to 89% in experiment [2], 50 to 79% in experiment [3], 50 to 79% in experiment [4] and 50 to 79% in experiment [5].
Consider `CSc1nc(C(=O)Nc2ccc(Oc3cc4cnn(C)c4cc3Br)c(F)c2)c(-c2ccc(F)cc2)o1` [Compound 2], for which the “inhibition of kinase activity, EPH-A5” value in experiment [1] is “D (category D for 50-79)”. Moreover, the inhibition at 5 µM in experiment [2], in experiment [3], in experiment [4] and in experiment [5] was under 50% in each case.
On to `[2H]C([2H])([2H])NC(=O)c1cc(Oc2ccc(NC(=O)c3nc(SC)oc3-c3ccc(F)s3)cc2F)ccn1` [Compound 35], for which the “inhibition of kinase activity, EPH-A5” value in experiment [1] was “E (category E is less than 50%)”. Also, the inhibition at 5 µM in experiment [2], in experiment [3], in experiment [4] and in experiment [5] was under 50% each time.
In the case of `CNC(=O)c1cc(Oc2ccc(NC(=O)c3nc(OC)oc3-c3ccc(F)c(F)c3)cc2F)ccn1` [Compound 24], the “inhibition of kinase activity, EPH-A5” value in experiment [1] is reported as “E (category E is less than 50%)”. For the same molecule, the inhibition at 5 µM was 50 to 79% in experiment [2], under 50% in experiment [3], under 50% in experiment [4] and 50 to 79% in experiment [5].
`CNC(=O)c1ccc(Oc2ccc(NC(=O)c3nc(Cl)oc3-c3ccc(F)cc3)c(F)c2)cn1` [Compound 36]: the “inhibition of kinase activity, EPH-A5” value in experiment [1] is on record as “E (category E is less than 50%)”. The inhibition at 5 µM in experiment [2], in experiment [3], in experiment [4] and in experiment [5] was under 50% throughout.
Consider `CNC(=O)c1cc(Oc2ccc(NC(=O)c3nc(SC)oc3-c3ccc(F)cc3F)cc2)ccn1` [Compound 6], for which, in experiment [1], the “inhibition of kinase activity, EPH-A5” value was “E (category E is less than 50%)”. Besides, the inhibition at 5 µM in experiment [2] was at least 95%; in experiment [3] it was under 50%; in experiment [4], under 50%; in experiment [5] it was 80 to 89%.
`CNC(=O)c1cc(Oc2ccc(NC(=O)c3nc(SC)oc3-c3ccc(Cl)s3)cc2)ccn1` [Compound 5]: the “inhibition of kinase activity, EPH-A5” value in experiment [1] is “E (category E is less than 50%)”. The inhibition at 5 µM in experiment [2] is 50 to 79%; in experiment [3], under 50%; in experiment [4], under 50%; in experiment [5] it was under 50%.
Regarding `CNC(=O)c1cc(Oc2ccc(NC(=O)c3nc(NC)oc3-c3ccc(F)cc3)cc2F)ccn1` [Compound 14], the “inhibition of kinase activity, EPH-A5” value in experiment [1] is reported as “D (category D for 50-79)”. Further, the inhibition at 5 µM was 50 to 79% in experiment [2], 80 to 89% in experiment [3], 90 to 94% in experiment [4] and 80 to 89% in experiment [5].
